Source: patent US20040121965A1, “Method of treating resistant tumors” (Wyeth Holdings Corporation, priority 2002, published 2004)
Where two headings read alike, the source gives them in different places.

Key:
[1] = system: KB-V1 (MDR1++); assay: Cell survival assay (SRB), KB-V1 (MDR1++); conditions: for IC50: Homo sapiens
[2] = system: KB-3-1; assay: Cell survival assay (SRB), KB-3-1; assay type: cell-based, human; conditions: Homo sapiens, KB 3-1, KB-3-1 cells (paclitaxel-sensitive parent); read-out: In vitro IC50 (nM) KB-3-1
Method in brief: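 SRB protein stain as survival read-out; IC50 = conc. giving 50% growth inhibition. Compound serially diluted, duplicate wells, 3 d exposure; TCA fixation (10% final, 1 h, 4 °C), 0.04% SRB/1% acetic acid 10 min, solubilised in 10 mM Trizma Base, A read.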

[3] = system: KB-8-5 (MDR1+); assay: Cell survival assay (SRB), KB-8-5 (MDR1+); conditions: for IC50: Homo sapiens, MDR1, read-out: In vitro IC50 (nM) KB85
[4] = read-out: In vitro IC50 (nM) KBV1

Compound	Ratio KBV1/KB [1]	IC50 [1, 4] [nM]	IC50 [2] [nM]	Ratio KB85/KB [3]	IC50 [3] [nM]	IC50 ([1]; read-out: In vitro IC50 KBV1) [nM]
CCC(CC)(c1ccccc1)[C@@H](NC)C(=O)N[C@H](C(=O)N(C)[C@H](/C=C(\C)C(=O)O)C(C)C)C(C)(C)C [Example 126, β,β-diethyl-N-methyl-D-phenylalanyl-N^1-[(1S,2E)-3-carboxy-1-isopropylbut-2-enyl]-N^1,3-dimethyl-L-valinamide]	63.3	1140	18	1.3	23	–
CN[C@H](C(=O)N[C@H](C(=O)N(C)[C@H](/C=C(\C)C(=O)O)C(C)C)C(C)(C)C)C(C)(C)c1cc2ccccc2s1 [Example 28, 3-(1-Benzothien-2-yl)-N-methylvalyl-N^1-[(1S,2E)-3-carboxy-1-isopropyl-2-butenyl]-N^1,3-dimethyl-L-valinamide]	54.4	139	2.55	1.8	4.6	–
CN[C@H](C(=O)N[C@@H](Cc1ccccc1)C(=O)N(C)[C@H](/C=C(\C)C(=O)O)C(C)C)C(C)(C)c1ccccc1 [Example 137, (E,4S)-2,5-dimethyl4-[methyl((2S)-2-{[(2S)-3-methyl-2-(methylamino)-3-phenylbutanoyl]amino}-3-phenylpropanoyl)amino]-2-hexenoic Acid]	3.2	≥ 3000	934	1.7	1580	–
C/C(=C\[C@H](C(C)C)N(C)C(=O)[C@@H](NC(=O)[C@@H](N1CCCC1)C(C)(C)c1ccccc1)C(C)(C)C)C(=O)O [Example 152, (2E,4S)-2,5-dimethyl-4-(methyl{3-methyl-N-[(2S)-3-methyl-3-phenyl-2-pyrrolidin-1-ylbutanoyl]-L-valyl}amino)hex-2-enoic Acid]	40	> 3000	75	2.1	158	–
CCN[C@H](C(=O)N[C@H](C(=O)N(C)[C@H](/C=C(\C)C(=O)OCC)C(C)C)C(C)(C)C)C(C)(C)c1ccccc1 [Example 31, N-Ethyl-β,β-dimethylphenylalanyl-N^1-[(1S,2E)-4-ethoxy-1-isopropyl-3-methyl4-oxo-2-butenyl]-N^1,3-dimethyl-L-valinamide]	6.9	≥ 3000	436	4.3	1860	–
CNC(C(=O)N[C@H](C(=O)N(C)[C@@H](/C=C(\C)C(=O)O)C(C)C)C(C)(C)C)C1(c2ccccc2)CCCCC1 (stereo partly drawn) [Example 73, (2E,4R)-2,5-dimethyl4-(methyl{3-methyl-N-[(methylamino)(1-phenylcyclohexyl)acetyl]-L-valyl}amino)-2-hexenoic Acid]	14.7	≥ 3000	204	1.8	363	–
CCOC(=O)/C(C)=C/[C@H](C(C)C)N(C)C(=O)[C@@H](NC(=O)[C@@H](NC)C(C)(C)c1ccc(OC)cc1)C(C)(C)C [Example 56, N,O,β,β-tetramethyl-L-tyrosyl-N^1-[(1S,2E)-4-ethoxy-1-isopropyl-3-methyl-4-oxo-2-butenyl]-N^1,3-dimethyl-L-valinamide]	67.6	1780	26.3	18.2	479	–
CN[C@@H](C(=O)N[C@H](C(=O)N(C)[C@H](/C=C(\C)C(=O)O)C(C)C)C(C)(C)C)C(C)(C)c1ccsc1 [Example 24, N-Methyl-3-thien-3-yl-D-valyl-N^1-[(1S,2E)-3-carboxy-1-isopropylbut-2-enyl]-N^1,3-dimethyl-L-valinamide]	182.9	1740	9.5	2.4	22.4	–
CCCCCC(C)(C)[C@@H](NC)C(=O)N[C@H](C(=O)N(C)[C@H](/C=C(\C)C(=O)O)C(C)C)C(C)(C)C [Example 51, (2E,4S)-4-[((2S)-2-{[(2R)-3,3-dimethyl-2-(methylamino)octanoyl]amino}-3,3-dimethylbutanoyl)(methyl)amino]-2,5-dimethyl-2-hexenoic Acid]	13.4	≥ 3000	224	1.6	363	–
CN[C@H](C(=O)N[C@H](C(=O)N(C)[C@H](/C=C(\C)C(=O)O)C(C)C)C(C)(C)F)C(C)(C)c1ccccc1 [Example 149, N,β,β-trimethyl-L-phenylalanyl-N^1-[(1S,2E)-3-carboxy-1-isopropylbut-2-enyl]-3-fluoro-N^1-methyl-L-valinamide]	–	117	1.6	2.2	3.5	–
CN[C@H](C(=O)N[C@H](C(=O)N(C)[C@H](/C=C(\C)C(=O)O)C(C)C)C(C)(C)C)C(C)(C)c1ccccc1OC [Example 55, 2-Methoxy-N,β,β-trimethyl-L-phenylalanyl-N^1-[(1S,2E)-3-carboxy-1-isopropyl-2-butenyl]-N^1,3-dimethyl-L-valinamide]	112.1	190	1.7	2.6	4.4	–
CN[C@H](C(=O)N[C@H](C(=O)N(C)[C@H](/C=C(\C)C(=O)O)C(C)C)C(C)(C)C)C(C)(C)c1cccc(-c2ccccc2)c1 [Example 39, 3-phenyl-N,β,β-trimethyl-L-phenylalanyl-N^1-[(1S,2E)-3-carboxy-1-isopropylbut-2-enyl]-N^1,3-dimethyl-L-valinamide]	78.4	149	1.9	2.8	5.4	–
CN[C@H](C(=O)N[C@H](C(=O)N(C)[C@H](/C=C(\C)C(=O)O)C(C)C)C(C)(C)C)C(C)(C)c1ccc(Br)cc1 [Example 43, 4-bromo-N,β,β-trimethylphenylalanyl-N^1-[(1S,2E)-3-carboxy-1-isopropyl-2-butenyl]-N^1,3-dimethyl-L-valinamide]	69.8	105	1.5	2.9	4.4	–
CN[C@@H](C(=O)N[C@H](C(=O)N(C)[C@H](/C=C(\C)C(=O)O)C(C)C)C(C)(C)C)C(C)(C)c1ccccc1C [Example 36, N,β,β,2-Tetramethyl-D-phenylalanyl-N^1-[(1S,2E)-3-carboxy-1-isopropyl-2-butenyl]-N^1,3-dimethyl-L-valinamide]	83.5	501	6	2.3	13.8	–
CCCC/C(=C\[C@@H](NC(=O)[C@@H](NC(=O)[C@@H](NC)C(C)(C)c1ccccc1)C(C)(C)C)C(C)C)C(=O)O [Example 77, (E,4S)-2-Butyl-4-[((2S)-3,3-dimethyl-2-{[(2S)-3-methyl-2-(methylamino)-3-phenylbutanoyl]amino}butanoyl)amino]-5-methyl-2-hexenoic Acid]	5.2	≥ 3000	575	3.0	1740	–
CNC(C(=O)NC(C)C(=O)N(C)C(C=C(C)C(=O)O)C(C)C)C(C)(C)c1ccccc1.O=C(O)C(F)(F)F (stereo not shown) [Example 103, 2,5-dimethyl-4-{methyl-[2-(3-methyl-2-methylamino-3-phenyl-butyrylamino)-propionyl]-amino}-hex-2-enoic Acid Trifluoroacetic Acid]	15.3	2610	170	13.3	2260	–
CN[C@H](C(=O)N[C@H](C(=O)N[C@H](/C=C(\C)C(=O)O)C(C)C)C(C)(C)C)C(C)(C)c1ccccc1.O=C(O)C(F)(F)F [Example 101, N,β,β-trimethyl-L-phenylalanyl-N^1-[(1S,2E)-3-carboxy-1-isopropylbut-2-enyl]-3-methyl-L-valinamide Trifluoroacetic Acid]	69.6	≥ 3000	43.1	3.2	139	–
CN[C@H](C(=O)N[C@H](C(=O)N(C)[C@H](/C=C(\C)C(=O)O)C(C)C)C(C)(C)C)C(C)(C)c1ccc(C(C)(C)C)cc1 [Example 30, 4-tert-Butyl-N,β,β-trimethylphenylalanyl-N^1-[(1S,2E)-3-carboxy-1-isopropyl-2-butenyl]-N^1,3-dimethyl-L-valinamide]	35.9	108	3	1.7	5.1	–
CN[C@H](C(=O)N[C@H](C(=O)N(C)[C@H](/C=C(\C)C(=O)O)C(C)C)C(C)(C)C)C(C)(C)c1ccc(OC(C)C)cc1 [Example 68, O-isopropyl-N,β,β-trimethyl-L-tyrosyl-N^1-[(1S,2E)-3-carboxy-1-isopropylbut-2-enyl]-N^1,3-dimethyl-L-valinamide]	47.2	70.8	1.5	2.9	4.3	–
CCC[C@H](NC(=O)[C@@H](NC)C(C)(C)c1ccccc1)C(=O)N(C)[C@H](/C=C(\C)C(=O)O)C(C)C.O=C(O)C(F)(F)F [Example 97, N,β,β-trimethyl-L-phenylalanyl-N^1-[(1S,2E)-3-carboxy-1-isopropylbut-2-enyl]-N^1-methyl-L-norvalinamide Trifluoroacetic Acid]	38.3	575	15	1.3	19	–
CN[C@H](C(=O)N[C@H](C(=O)N(C)[C@H](C[C@H](C)C(=O)O)C(C)C)C(C)(C)C)C(C)(C)c1ccccc1 [Example 123, N,β,β-trimethyl-L-phenylalanyl-N^1-[(1R,3S)-3-carboxy-1-isopropylbutyl]-N^1,3-dimethyl-L-valinamide]	–	–	891	0.6	537	> 3000
